From ChEMBL document CHEMBL5291721, “A preclinical secondary pharmacology resource illuminates target-adverse drug reaction associations of marketed drugs” (Nat Commun, 2023) come the findings set out here.

Experiment [1] concerns the target T1, Alpha-1A adrenergic receptor (Homo sapiens, UniProt P35348).
T1 sequence (P35348 whole entry): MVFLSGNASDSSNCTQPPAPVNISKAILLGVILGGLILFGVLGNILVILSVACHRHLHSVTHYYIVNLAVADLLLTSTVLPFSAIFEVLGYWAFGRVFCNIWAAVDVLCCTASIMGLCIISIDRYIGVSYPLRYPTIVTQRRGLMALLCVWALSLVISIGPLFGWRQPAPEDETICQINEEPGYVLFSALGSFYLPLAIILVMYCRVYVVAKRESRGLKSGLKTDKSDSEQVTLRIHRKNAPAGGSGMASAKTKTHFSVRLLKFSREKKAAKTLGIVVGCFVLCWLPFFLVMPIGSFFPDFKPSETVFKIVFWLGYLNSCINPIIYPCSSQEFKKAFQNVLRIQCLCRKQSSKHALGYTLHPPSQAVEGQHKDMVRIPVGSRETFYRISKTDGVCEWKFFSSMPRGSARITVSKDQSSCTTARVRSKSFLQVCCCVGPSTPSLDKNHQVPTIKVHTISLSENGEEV
It is filed as functional, cell-based.

Experiment [2] deals with T2, Gastrin/cholecystokinin type B receptor (Homo sapiens, UniProt P32239).
T2 sequence (P32239 whole entry): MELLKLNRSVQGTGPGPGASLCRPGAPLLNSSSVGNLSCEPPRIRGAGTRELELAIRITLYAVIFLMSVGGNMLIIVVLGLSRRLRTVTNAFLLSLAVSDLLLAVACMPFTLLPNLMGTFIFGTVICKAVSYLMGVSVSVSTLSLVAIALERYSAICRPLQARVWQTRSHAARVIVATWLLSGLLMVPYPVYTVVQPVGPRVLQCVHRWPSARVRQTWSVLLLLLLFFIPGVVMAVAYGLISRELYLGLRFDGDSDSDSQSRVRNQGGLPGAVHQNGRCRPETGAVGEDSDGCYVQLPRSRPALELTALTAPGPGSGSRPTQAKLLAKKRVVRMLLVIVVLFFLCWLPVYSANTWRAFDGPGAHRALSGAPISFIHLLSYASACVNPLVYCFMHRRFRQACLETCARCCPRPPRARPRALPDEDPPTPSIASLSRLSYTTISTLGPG

The target of experiment [3] is 5-hydroxytryptamine receptor 2B (Homo sapiens, UniProt P41595). It is filed as functional, cell-based.
Experiment [4] has as its target T3, Alpha-2A adrenergic receptor (Homo sapiens, UniProt P08913).
T3 sequence (P08913 whole entry): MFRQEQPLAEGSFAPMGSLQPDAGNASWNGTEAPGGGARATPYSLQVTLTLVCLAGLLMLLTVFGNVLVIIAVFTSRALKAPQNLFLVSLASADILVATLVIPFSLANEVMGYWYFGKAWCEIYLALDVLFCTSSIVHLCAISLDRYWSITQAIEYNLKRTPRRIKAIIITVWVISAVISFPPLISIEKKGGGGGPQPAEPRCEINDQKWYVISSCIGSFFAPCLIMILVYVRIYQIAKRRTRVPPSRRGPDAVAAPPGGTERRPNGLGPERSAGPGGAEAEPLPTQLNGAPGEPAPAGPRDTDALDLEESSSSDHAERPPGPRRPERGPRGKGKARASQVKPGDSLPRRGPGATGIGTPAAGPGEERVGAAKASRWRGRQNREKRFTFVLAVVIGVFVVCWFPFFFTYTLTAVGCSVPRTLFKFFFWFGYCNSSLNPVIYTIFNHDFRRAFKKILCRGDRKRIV
It is filed as functional, cell-based.

Experiment [5] addresses cGMP-inhibited 3',5'-cyclic phosphodiesterase 3A (Homo sapiens, UniProt Q14432). It is filed as functional.
Experiment [6] addresses T4, Cannabinoid receptor 1 (Homo sapiens, UniProt P21554). It is filed as functional, cell-based.
In experiment [7] the target is T4, Cannabinoid receptor 1. It is filed as functional, cell-based. The source holds these as a separate data set.
Experiment [8] has as its target Voltage-dependent L-type calcium channel subunit alpha-1C (Rattus norvegicus, UniProt P22002). It is filed as functional.
In the next experiment the target is T5, Endothelin-1 receptor (Homo sapiens, UniProt P25101).
T5 sequence (P25101 whole entry): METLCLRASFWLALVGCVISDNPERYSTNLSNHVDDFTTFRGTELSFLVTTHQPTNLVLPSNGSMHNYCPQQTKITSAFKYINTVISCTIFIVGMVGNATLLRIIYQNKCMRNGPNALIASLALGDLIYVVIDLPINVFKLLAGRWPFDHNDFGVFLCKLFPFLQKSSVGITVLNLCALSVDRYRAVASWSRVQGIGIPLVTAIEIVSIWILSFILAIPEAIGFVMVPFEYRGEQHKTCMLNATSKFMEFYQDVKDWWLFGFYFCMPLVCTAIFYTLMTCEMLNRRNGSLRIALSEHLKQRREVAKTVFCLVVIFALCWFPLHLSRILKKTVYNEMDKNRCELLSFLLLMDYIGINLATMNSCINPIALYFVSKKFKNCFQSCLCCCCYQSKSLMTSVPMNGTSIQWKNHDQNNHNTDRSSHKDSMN

A value given as a limit tells only on which side of the number the result lay.
Also: assay procedure not described here.

Chain of 5-hydroxytryptamine receptor 2B (P41595 whole entry): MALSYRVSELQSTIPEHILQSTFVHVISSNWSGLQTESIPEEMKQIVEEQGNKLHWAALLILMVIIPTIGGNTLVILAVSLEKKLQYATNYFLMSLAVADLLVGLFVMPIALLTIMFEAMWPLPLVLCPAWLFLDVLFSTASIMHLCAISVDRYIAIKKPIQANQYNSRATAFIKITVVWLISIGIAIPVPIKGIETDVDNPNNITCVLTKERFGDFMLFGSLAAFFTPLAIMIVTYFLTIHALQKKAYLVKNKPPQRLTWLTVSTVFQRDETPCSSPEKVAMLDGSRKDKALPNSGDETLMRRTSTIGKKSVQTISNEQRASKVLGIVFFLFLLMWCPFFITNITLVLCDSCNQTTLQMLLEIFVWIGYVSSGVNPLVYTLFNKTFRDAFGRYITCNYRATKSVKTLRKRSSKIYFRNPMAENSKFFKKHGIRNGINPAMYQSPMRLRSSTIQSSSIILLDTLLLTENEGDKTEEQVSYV
Chain of cGMP-inhibited 3',5'-cyclic phosphodiesterase 3A (Q14432 whole entry): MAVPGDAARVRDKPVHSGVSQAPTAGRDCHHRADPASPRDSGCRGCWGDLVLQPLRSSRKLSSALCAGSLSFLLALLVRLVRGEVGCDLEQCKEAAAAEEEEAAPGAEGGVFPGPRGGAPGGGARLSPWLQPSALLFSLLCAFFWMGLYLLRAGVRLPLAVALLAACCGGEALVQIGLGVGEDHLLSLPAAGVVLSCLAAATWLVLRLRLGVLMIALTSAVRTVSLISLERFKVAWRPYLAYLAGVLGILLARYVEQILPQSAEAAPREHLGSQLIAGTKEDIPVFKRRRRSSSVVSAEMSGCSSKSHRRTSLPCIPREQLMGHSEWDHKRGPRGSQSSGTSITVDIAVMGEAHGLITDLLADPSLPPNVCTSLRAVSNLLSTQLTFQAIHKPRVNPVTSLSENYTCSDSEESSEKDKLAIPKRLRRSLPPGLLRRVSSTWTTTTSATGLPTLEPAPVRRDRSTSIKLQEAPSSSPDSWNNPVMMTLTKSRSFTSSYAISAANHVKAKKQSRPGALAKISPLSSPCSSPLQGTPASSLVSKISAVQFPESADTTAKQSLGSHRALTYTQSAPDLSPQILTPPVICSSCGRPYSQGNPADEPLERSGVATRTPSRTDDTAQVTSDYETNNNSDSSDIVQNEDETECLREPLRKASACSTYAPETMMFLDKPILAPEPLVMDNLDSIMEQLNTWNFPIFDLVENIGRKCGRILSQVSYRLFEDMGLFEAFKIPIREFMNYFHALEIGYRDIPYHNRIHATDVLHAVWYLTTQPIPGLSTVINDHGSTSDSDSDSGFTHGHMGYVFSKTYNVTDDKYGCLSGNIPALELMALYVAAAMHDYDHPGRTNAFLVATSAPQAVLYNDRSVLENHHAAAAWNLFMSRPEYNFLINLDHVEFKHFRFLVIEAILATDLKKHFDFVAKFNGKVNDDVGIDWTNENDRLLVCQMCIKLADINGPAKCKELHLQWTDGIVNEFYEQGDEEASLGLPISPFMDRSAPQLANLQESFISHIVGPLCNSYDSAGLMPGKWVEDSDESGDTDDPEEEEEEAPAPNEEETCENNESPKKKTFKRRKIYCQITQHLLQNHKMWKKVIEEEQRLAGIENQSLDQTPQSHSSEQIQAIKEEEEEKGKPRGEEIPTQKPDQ
Chain of Voltage-dependent L-type calcium channel subunit alpha-1C (P22002 whole entry): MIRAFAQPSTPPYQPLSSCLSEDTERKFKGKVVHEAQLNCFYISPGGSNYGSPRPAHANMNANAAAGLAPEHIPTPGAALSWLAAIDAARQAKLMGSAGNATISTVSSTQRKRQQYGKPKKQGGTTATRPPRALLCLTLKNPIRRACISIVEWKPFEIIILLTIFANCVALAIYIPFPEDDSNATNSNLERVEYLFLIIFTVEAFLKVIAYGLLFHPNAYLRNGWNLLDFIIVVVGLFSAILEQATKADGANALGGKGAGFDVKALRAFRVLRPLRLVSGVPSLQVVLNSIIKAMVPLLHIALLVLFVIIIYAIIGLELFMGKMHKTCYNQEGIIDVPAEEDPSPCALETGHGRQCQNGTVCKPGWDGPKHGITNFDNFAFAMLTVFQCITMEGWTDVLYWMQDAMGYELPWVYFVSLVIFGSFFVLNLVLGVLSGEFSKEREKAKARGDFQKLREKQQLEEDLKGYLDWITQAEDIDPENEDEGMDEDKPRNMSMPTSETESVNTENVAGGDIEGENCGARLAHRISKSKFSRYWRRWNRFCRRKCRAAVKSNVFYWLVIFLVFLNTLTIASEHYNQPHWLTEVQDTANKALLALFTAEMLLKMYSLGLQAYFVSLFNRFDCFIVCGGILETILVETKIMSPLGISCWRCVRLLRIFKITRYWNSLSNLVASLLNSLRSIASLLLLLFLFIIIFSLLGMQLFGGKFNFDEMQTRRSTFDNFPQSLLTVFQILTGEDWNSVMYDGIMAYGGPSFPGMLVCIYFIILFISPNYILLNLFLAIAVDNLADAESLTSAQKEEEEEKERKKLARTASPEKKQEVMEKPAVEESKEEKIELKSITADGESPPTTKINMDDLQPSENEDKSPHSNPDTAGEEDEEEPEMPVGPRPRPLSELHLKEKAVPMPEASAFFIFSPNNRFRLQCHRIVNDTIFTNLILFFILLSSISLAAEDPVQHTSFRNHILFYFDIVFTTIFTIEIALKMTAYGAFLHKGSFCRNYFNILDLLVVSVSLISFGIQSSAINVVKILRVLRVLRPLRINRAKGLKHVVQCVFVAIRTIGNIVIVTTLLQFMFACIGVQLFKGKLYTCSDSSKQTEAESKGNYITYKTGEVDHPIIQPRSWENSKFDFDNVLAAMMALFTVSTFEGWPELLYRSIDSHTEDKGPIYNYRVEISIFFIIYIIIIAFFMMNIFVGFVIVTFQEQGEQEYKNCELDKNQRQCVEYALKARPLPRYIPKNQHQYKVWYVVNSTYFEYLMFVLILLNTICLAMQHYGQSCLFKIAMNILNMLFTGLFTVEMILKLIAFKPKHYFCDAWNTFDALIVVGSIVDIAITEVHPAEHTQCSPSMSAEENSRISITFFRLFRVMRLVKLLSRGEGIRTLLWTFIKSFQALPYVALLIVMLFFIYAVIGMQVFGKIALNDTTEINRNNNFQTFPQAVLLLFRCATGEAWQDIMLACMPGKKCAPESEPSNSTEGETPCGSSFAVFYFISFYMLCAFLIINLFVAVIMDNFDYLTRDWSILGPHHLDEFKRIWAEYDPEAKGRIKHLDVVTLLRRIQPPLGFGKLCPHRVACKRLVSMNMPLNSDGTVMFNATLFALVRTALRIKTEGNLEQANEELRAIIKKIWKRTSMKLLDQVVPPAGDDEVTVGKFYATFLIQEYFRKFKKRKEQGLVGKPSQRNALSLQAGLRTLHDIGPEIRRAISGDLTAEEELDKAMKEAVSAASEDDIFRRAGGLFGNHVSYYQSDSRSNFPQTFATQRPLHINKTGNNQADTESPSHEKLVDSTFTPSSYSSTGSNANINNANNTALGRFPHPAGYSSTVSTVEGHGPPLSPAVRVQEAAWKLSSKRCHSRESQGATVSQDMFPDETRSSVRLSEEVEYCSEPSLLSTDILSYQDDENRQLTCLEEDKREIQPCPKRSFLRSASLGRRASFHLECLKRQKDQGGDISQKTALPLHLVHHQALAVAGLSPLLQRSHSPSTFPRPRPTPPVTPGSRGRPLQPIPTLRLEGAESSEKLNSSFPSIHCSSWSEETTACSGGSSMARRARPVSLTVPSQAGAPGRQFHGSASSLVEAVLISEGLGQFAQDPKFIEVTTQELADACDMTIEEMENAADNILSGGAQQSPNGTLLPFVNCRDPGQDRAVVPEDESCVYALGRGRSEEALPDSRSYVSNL
T4 sequence (P21554 whole entry): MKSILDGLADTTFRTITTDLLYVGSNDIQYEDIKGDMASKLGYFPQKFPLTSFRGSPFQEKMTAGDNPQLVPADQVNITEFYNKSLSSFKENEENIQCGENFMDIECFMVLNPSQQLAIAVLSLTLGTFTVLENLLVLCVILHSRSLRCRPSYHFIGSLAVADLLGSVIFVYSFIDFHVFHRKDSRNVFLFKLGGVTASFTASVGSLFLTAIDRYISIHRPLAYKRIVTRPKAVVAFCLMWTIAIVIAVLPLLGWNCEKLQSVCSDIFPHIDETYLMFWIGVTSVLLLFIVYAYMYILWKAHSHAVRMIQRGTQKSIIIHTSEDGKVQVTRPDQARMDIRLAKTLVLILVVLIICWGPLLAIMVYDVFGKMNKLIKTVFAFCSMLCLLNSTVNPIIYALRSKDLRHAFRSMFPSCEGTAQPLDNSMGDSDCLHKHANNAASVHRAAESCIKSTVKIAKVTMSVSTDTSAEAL

The term AC50 denotes the concentration at which the activity in the assay is half-maximal. In the case of `CN1CCC[C@@H]1Cc1c[nH]c2ccc(CCS(=O)(=O)c3ccccc3)cc12`, in [1], the half-maximal activity concentration (AC50) was > 30 µM.

For `COc1nccnc1NS(=O)(=O)c1ccc(N)cc1`, in [1], the half-maximal activity concentration (AC50) is > 30 µM.

For the compound `O=C(Nc1cccc2c(=O)cc(-c3nnn[nH]3)oc12)c1ccc(OCCCCc2ccccc2)cc1`, the AC50 in [1] is > 30 µM.

Turning to `CC(/C=C1\SC(=S)N(CC(=O)O)C1=O)=C\c1ccccc1`, the AC50 (in experiment [2]; in [3]; in [4]; in experiment [5]; on Cannabinoid receptor 1 [6]; at Cannabinoid receptor 1 [7]) was > 30 µM throughout. Besides, the AC50 (in experiment [8]; on Endothelin-1 receptor) was > 30 µM each time.

Turning to `CCc1oc2ccccc2c1C(=O)c1cc(Br)c(O)c(Br)c1` [BENZBROMARONE], the AC50 in [2] is > 30 µM; in experiment [3], 1.53 µM; in experiment [4], > 30 µM; in experiment [5], 9.4 µM; at Cannabinoid receptor 1 [6] it was > 30 µM; at Cannabinoid receptor 1 [7], > 30 µM. The AC50 in [8] is > 10 µM; on Endothelin-1 receptor, > 30 µM.

The compound `CN(C)CCN(Cc1ccc(Cl)cc1)c1ccccn1` [CHLOROPYRAMINE] showed an AC50 in [1] of 6.52 µM.

For the compound `COC(=O)[C@H](c1ccccc1Cl)N1CCc2sccc2C1` [CLOPIDOGREL], the AC50 in experiment [2] was > 30 µM; in experiment [3] it was 2 µM; in experiment [4] it was > 30 µM; in experiment [5] it was > 30 µM; at Cannabinoid receptor 1 [6], > 30 µM; on Cannabinoid receptor 1 [7], > 30 µM. The AC50 (in [8]; at Endothelin-1 receptor) was > 30 µM each time.

Regarding `N[C@@H](CSSC[C@H](N)C(=O)O)C(=O)O` [CYSTINE], the AC50 in [1] is > 30 µM.

For `Nc1nc(O)c2ncn(COC(CO)CO)c2n1` [GANCICLOVIR], the concentration at half-maximal activity (AC50) (in experiment [2]; in experiment [3]; in [4]; in [5]; on Cannabinoid receptor 1 [6]; on Cannabinoid receptor 1 [7]) was > 30 µM throughout. The AC50 (in experiment [8]; at Endothelin-1 receptor) was > 30 µM each time.

For `Cc1cnc(NC(=O)C2=C(O)c3ccccc3S(=O)(=O)N2C)s1` [MELOXICAM], the AC50 in experiment [2] is > 30 µM; in experiment [3], > 10 µM; in experiment [4], > 10 µM; in [5] it was > 10 µM; on Cannabinoid receptor 1 [6], > 30 µM; at Cannabinoid receptor 1 [7], > 30 µM. Further, the AC50 in experiment [8] was > 10 µM; on Endothelin-1 receptor, 13.4 µM.

The compound `C#C[C@]1(O)CC[C@H]2[C@@H]3CCC4=C(CCC(=O)C4)[C@H]3CC[C@@]21C` [NORETHYNODREL] came in with an AC50 in experiment [1] of 17.4 µM.

Turning to `COc1ccnc(C[S+]([O-])c2nc3ccc(OC(F)F)cc3[nH]2)c1OC` (stereo not drawn) [PANTOPRAZOLE], the half-maximal activity concentration (AC50) in experiment [2] was > 30 µM; in [3], > 10 µM; in [4], > 10 µM; in experiment [5] it was > 30 µM; at Cannabinoid receptor 1 [6], > 30 µM; at Cannabinoid receptor 1 [7], > 30 µM. Further, the AC50 was > 10 µM in experiment [8] and > 30 µM at Endothelin-1 receptor.

On to `CN(C)CCC(c1ccccc1)c1ccccn1` (stereo not drawn) [PHENIRAMINE], for which the AC50 in experiment [1] is > 30 µM.

`O=C1NC(=O)C(c2ccccc2)(c2ccccc2)N1` [PHENYTOIN]: the AC50 (in [2]; in [3]; in experiment [4]; in experiment [5]; on Cannabinoid receptor 1 [6]; on Cannabinoid receptor 1 [7]) was > 30 µM in each case. In addition, the concentration at half-maximal activity (AC50) in experiment [8] is > 10 µM; at Endothelin-1 receptor, > 30 µM.

With `CC(C)C[C@H](CN)CC(=O)O` [PREGABALIN], the AC50 (in experiment [2]; in [3]; in experiment [4]; in [5]; at Cannabinoid receptor 1 [6]; on Cannabinoid receptor 1 [7]) was > 30 µM each time. The AC50 (in experiment [8]; at Endothelin-1 receptor) was > 30 µM each time.

As to `CC(C)N(CCCCOCC(=O)NS(C)(=O)=O)c1cnc(-c2ccccc2)c(-c2ccccc2)n1` [SELEXIPAG], the half-maximal activity concentration (AC50) in [2] was > 10 µM; in experiment [3], 12 µM; in experiment [4] it was > 30 µM; in experiment [5], > 30 µM; at Cannabinoid receptor 1 [6], > 30 µM; at Cannabinoid receptor 1 [7] it was 28 µM. In addition, the half-maximal activity concentration (AC50) (in [8]; on Endothelin-1 receptor) was > 30 µM throughout.

With `CC(=O)S[C@@H]1CC2=CC(=O)CC[C@]2(C)[C@H]2CC[C@@]3(C)[C@@H](CC[C@@]34CCC(=O)O4)[C@H]12` [SPIRONOLACTONE], the AC50 in experiment [2] is > 30 µM; in experiment [3] it was 29 µM; in experiment [4] it was > 30 µM; in experiment [5], > 30 µM; on Cannabinoid receptor 1 [6] it was > 30 µM; on Cannabinoid receptor 1 [7], > 30 µM. Moreover, the AC50 in [8] was > 10 µM; at Endothelin-1 receptor it was > 30 µM.

Take `CCCCNc1ccc(C(=O)OCCN(C)C)cc1` [TETRACAINE]: the half-maximal activity concentration (AC50) was > 30 µM in [2]; 33 µM in experiment [3]; > 10 µM in experiment [4]; > 30 µM in experiment [5]; > 30 µM on Cannabinoid receptor 1 [6]; > 30 µM at Cannabinoid receptor 1 [7]. For the same compound, the results for the concentration at half-maximal activity (AC50) (in experiment [8]; on Endothelin-1 receptor; in experiment [1]) were > 10 µM, > 30 µM and > 30 µM, respectively.

With `Cn1c(=O)c2[nH]cnc2n(C)c1=O` [THEOPHYLLINE], the half-maximal activity concentration (AC50) is > 30 µM in experiment [2]; > 10 µM in experiment [3]; > 10 µM in experiment [4]; > 30 µM on Cannabinoid receptor 1 [6]; > 30 µM on Cannabinoid receptor 1 [7]; > 10 µM in experiment [8]. The figures for the AC50 (at Endothelin-1 receptor; in experiment [1]) were > 30 µM and > 10 µM, respectively.

Take `CCCCCCCCCCCCCCCC(=O)OC/C=C(C)/C=C/C=C(C)/C=C/C1=C(C)CCCC1(C)C` [VITAMIN A PALMITATE]: in experiment [1], the AC50 was > 30 µM.

In the case of `Cc1cc(CC(=O)O)n(C)c1C(=O)c1ccc(Cl)cc1` [ZOMEPIRAC], the half-maximal activity concentration (AC50) was > 30 µM in experiment [2]; > 30 µM in experiment [3]; > 30 µM in experiment [4]; > 30 µM in experiment [5]; > 30 µM on Cannabinoid receptor 1 [6]; > 10 µM at Cannabinoid receptor 1 [7]. Also, the AC50 (in experiment [8]; on Endothelin-1 receptor) was > 30 µM in each case.
